According to patent US7687083B2, “Pharmaceutical compositions comprising old man's beard (Usnea barbata) and St. John's wort (Hypericum perforatum) and their use” (Universitatsklinikum Freiburg, priority 2004, dated 2010):
In brackets after ≈: the same amount, converted by molar mass.

Legend:
UV erythema test = type: in vivo, healthy test persons; conditions: 1.5 times MED UVB, applied in Finn chambers for 24 hours; FIG. 5
Experimental: The minimal erythema dose for UVB was determined in the case of seven healthy test persons. Thereafter, test fields on the back were exposed to 1.5 times the minimal erythema dose (MED). The test substances were applied in Finn chambers for 24 hours. The UV-induced erythema was determined photometrically before exposure and after action of the substances.

Propionibacterium acnes = assay: agar dilution test (MIC/MBC); type: cell-based; conditions: Cutibacterium acnes
Experimental: The old man's beard CO2 extract (Usnea barbata L.) was tested in the concentrations 1:10, 1:50, 1:100, 1:500 and 1:1000 in the agar dilution test for a number of aerobic and anaerobic bacteria. The pure substance usnic acid was tested in concentrations of 128/64/32/16/8/4/2/1/0.5/0.25 and 0.125 μg/ml. The MIC (minimum inhibitory concentration) is defined as >90% inhibition of bacterial growth after 24 h. The MBC (minimum bactericidal concentration) is defined as >90% inhibition of the growth at 48 h.

Pityrosporon ovale = assay: oil submersion test on Sabouraud agar with scales of patients with seborrhoeal eczema; type: cell-based; conditions: 1% in olive oil; incubation for 4 days
Experimental: In addition, the efficacy against pityrosporon of 1% Usnea extract in olive oil in comparison with 1% amphotericin was investigated. For this purpose, scales of patients with seborrhoeal eczema were applied to Sabouraud agar and covered with a layer of the oil. After incubation for 4 days in an incubator, the number of colony-forming units was counted.

Compound: CCOC(=O)O[C@]1(C(=O)COC(=O)CC)CC[C@H]2[C@@H]3CCC4=CC(=O)C=C[C@]4(C)[C@H]3[C@@H](O)C[C@@]21C [Prednicarbate]
- UV-induced inflammation (erythema, photometric) (UV erythema test): inhibit the UV-induced inflammation

Compound: CC(=O)c1c(O)c(C)c(O)c2c1OC1=CC(=O)C(C(C)=O)C(=O)C12C (centres unmarked) [Usnic acid, usnic acid]
- MIC (Propionibacterium acnes; >90% inhibition of bacterial growth after 24 h): 1 µg/mL (≈ 2.9 µM)
- MBC (Propionibacterium acnes; >90% inhibition of the growth at 48 h): 4 µg/mL (≈ 11.6 µM)

Compound: C[C@@H]1[C@H](O)[C@@H](C)/C=C/C=C/C=C/C=C/C=C/C=C/C=C/[C@H](O[C@@H]2O[C@H](C)[C@@H](O)[C@H](N)[C@@H]2O)C[C@@H]2O[C@](O)(C[C@@H](O)C[C@@H](O)[C@H](O)CC[C@@H](O)C[C@@H](O)CC(=O)O[C@H]1C)C[C@H](O)[C@H]2C(=O)O [1% Amphotericin in olive oil, amphotericin]
- growth of the pityrosporon yeast fungi (Pityrosporon ovale): inhibited completely
- number of colony-forming units (Pityrosporon ovale): 1 CFU
